Patent US7795226B2, “Control of radiation injury” (Biotempt B.V., priority 2006, dated 2010)
Values joined by “and” are separate entries in the source; they are usually repeats but may differ in a detail not shown here. Equal entries are not always repeated.

How the values were obtained:
Assay type in all cases: in vivo
[1] = tested on: high dose LPS (E. coli 026:B6)-induced septic shock in BALB/c mice; assay: high dose LPS-induced septic shock, peptide administered twice; conditions: peptide twice (t = 2 and 24 hours) 5 mg/kg
Method in brief: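 Female BALB/c mice (8–12 weeks) given high-dose LPS (E. coli 026:B6) i.p., predetermined to cause 80–100% mortality in 24–72 h. Peptides in PBS at 5 mg/kg i.p. at 2 and 24 h after LPS; sickness scored 0–5 or dead.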

[2] = tested on: LPS (E. coli 026:B6)-induced septic shock in BALB/c mice; assay: LPS-induced septic shock, single dose of peptide
Protocol: Mice used in sepsis or septic shock experiments: Female BALB/c mice of eight to twelve weeks of age were used for all experiments. The animals were bred in our facility under specific pathogen-free conditions according to the protocols described in the […] of European Laboratory Animal Science Associations (FELASA) Working group on Animal Health (Laboratory Animals 28:1-24, 1994).
Injection protocols: For the endotoxin model, BALB/c mice were injected i.p. with 150-300 μg LPS (E. coli 026:B6; Difco Lab., Detroit, Mich., USA). Control groups were treated with PBS i.p. only. To test the effect of peptides, they were dissolved in PBS and injected i.p. at predetermined points in time after LPS treatment.
Mice were scored for sickness severity using the following measurement scheme: • 0 No abnormalities. • 1 Percolated fur, but no detectable behavior differences compared to normal mice. • 2 Percolated fur, huddle reflex, responds to stimuli (such as tap on cage), just as active during handling as healthy mouse. • 3 Slower response to tap on cage, passive or docile when handled, but still curious when alone in a new setting. • 4 Lack of curiosity, little or no response to stimuli, quite immobile. • 5 Labored breathing, inability or slow to self-right after being rolled onto back (moribund, sacrificed). • D Dead.
A first set of septic shock experiments were set up to determine which of the peptides LQG, LQGV (SEQ ID NO:117), VLPALP (SEQ ID NO:140), VLPALPQ (SEQ ID NO:143), MTR, MTRV (SEQ ID NO:119), VVC or QVVC (SEQ ID NO:118) were capable of inhibiting lipopolysaccharide (LPS)-induced septic shock in mice by treating mice with a single dose of peptide at two hours after LPS treatment. Peptides were used at 5 mg/kg bodyweight. BALB/c mice were injected i.p. with escalating doses LPS (E. coli 026:B6; Difco Lab., Detroit, Mich. USA), predetermined to be leading to 80 to 100% mortality in 24 to 72 hours.
To test the effect of peptide early in the development of shock, mice were treated at two hours or at 24 hours after treatment with varying doses of LPS by i.p. injection with test peptide at 5 mg/kg bodyweight.

[3] = tested on: renal ischemia reperfusion in mice; assay: mouse renal ischemia reperfusion test; design: BUN after 25 minutes renal ischemia, mean / Urea levels in dose-response experiment: unit not given here; conditions: for mortality at 72 hours post-reperfusion: 5 mg/kg i.v. before and after 25 minutes clamping, dead/total
Protocol: Six oligopeptides (i.e., A: LAGV (SEQ ID NO:121); B: AQGV (SEQ ID NO:120); C: LAG; D: AQG; E: MTR; and F: MTRV (SEO ID NO:119)) were tested and compared with PBS (control) in a double blind animal study for each peptide's relative ability to aid recovery in a mouse renal ischemia reperfusion test. In this test, the mice were anesthetized, and one kidney from each mouse was removed. The other kidney was tied off for 25 minutes, and the serum urea levels were allowed to increase. Both before and after tying off, each of the separate peptides was administered to thirty (30) different mice (5 mg oligopeptide / kg body mass intravenously), after which, the mortality of the mice was determined for each oligopeptide as well as was the BUN concentration at two hours, 24 hours and 72 hours. The results are shown in Table 3 below (excluding the results of peptide A (LAGV (SEQ ID NO:121)) obtained in Example 3).
Under inhalation anesthesia, the left kidney with its artery and vein was isolated and occluded for 25 minutes using a microvascular clamp. During surgery, animals were placed on a heating pad to maintain body temperature at 37° C. Five minutes before placing the clamp, and five minutes before releasing the clamp, 5 mg/kg of peptide dissolved in 0.1 mL of sterile saline, was administered intravenously. After reperfusion of the left kidney, the right kidney was removed. Kidney function was assessed by measuring blood urea nitrogen before clamping, and at 2, 24, and 72 hours after reperfusion.
Peptides were tested at 0.3, 1, 3, 10 and 30 mg/kg dosages given as described in Example 3. P values (calculated by Mann Whitney U-test (SPSS for Windows)) of serum urea levels of PBS compared to peptide D groups at 72 hours post-clamping were at 0.3 mg/kg 0.001, at 1 mg/kg 0.009, at 3 mg/kg 0.02, at 10 mg/kg 0.000, and at 30 mg/kg 0.23; for peptide B (SEQ ID NO:120) groups, these P-values were 0.88, 0.054, 0.000, 0.001 and 0.003.

[4] = LPS dose 7**, single dose 5 mg/kg
[5] = LPS dose 7*, single dose 5 mg/kg
[6] = LPS dose 10, single dose 5 mg/kg
[7] = 2 hours after reperfusion, 5 mg/kg i.v.
[8] = 24 hours after reperfusion, 5 mg/kg i.v.
[9] = 72 hours after reperfusion, 5 mg/kg i.v.
[10] = t = 0 hr (before clamping), 5 mg/kg i.v.
[11] = LPS dose 10, single dose 5 mg/kg, 5 mg/kg
[12] = LPS dose 8, single dose 5 mg/kg
[13] = LPS dose 8, single dose 5 mg/kg, 5 mg/kg
[14] = LPS dose 9, single dose 5 mg/kg
[15] = LPS dose 9, single dose 5 mg/kg, 5 mg/kg

MTR
mice with sickness score 1, effect at t = 24 hours ([1]; LPS dose 10.5): 4
mice with sickness score 1, effect at t = 48 hours ([1]; LPS dose 10.5): 5
mice with sickness score 2, effect at t = 24 hours ([1]; LPS dose 10.5): 1
mice with sickness score 1, effect at t = 24 hours ([1]; LPS dose 11): 6
mice with sickness score 1, effect at t = 48 hours ([1]; LPS dose 11): 6
mice scored D (dead), effect at t = 48 hours [2, 4]: 3
mice with sickness score 1, effect at t = 48 hours [2, 4]: 3
mice with sickness score 2, effect at t = 24 hours [2, 4]: 1
mice with sickness score 3, effect at t = 24 hours [2, 4]: 3
mice with sickness score 4, effect at t = 24 hours [2, 4]: 1
mice with sickness score 5, effect at t = 24 hours [2, 4]: 1
mice scored D (dead), effect at t = 48 hours [2, 5]: 1
mice with sickness score 3, effect at t = 24 hours [2, 5]: 3
mice with sickness score 4, effect at t = 24 hours [2, 5]: 3
mice with sickness score 4, effect at t = 48 hours [2, 5]: 2
mice with sickness score 5, effect at t = 48 hours [2, 5]: 3
mice scored D (dead), effect at t = 24 hours [2, 6]: 1
mice scored D (dead), effect at t = 48 hours [2, 6]: 3
mice with sickness score 1, effect at t = 48 hours [2, 6]: 2
mice with sickness score 3, effect at t = 24 hours [2, 6]: 2
mice with sickness score 4, effect at t = 24 hours [2, 6]: 3
mice with sickness score 5, effect at t = 48 hours [2, 6]: 1
BUN concentration versus the PBS control group (in words) ([3]; 5 mg/kg i.v.): no reducing effect on BUN concentration
mortality versus the PBS control group (in words) ([3]; 5 mg/kg i.v.): significant reduction of mortality
mortality at 72 hours post-reperfusion [3]: 4/10
BUN after 25 minutes renal ischemia, mean [3, 7]: 17.13
BUN after 25 minutes renal ischemia, mean [3, 8]: 66.23
BUN after 25 minutes renal ischemia, mean [3, 9]: 104.0167
BUN concentration versus PBS (in words) ([3]; at 72 hours post-reperfusion, 5 mg/kg i.v.): significantly raise BUN levels
BUN after 25 minutes renal ischemia, mean [3, 10]: 8.404

MTRV
mice with sickness score 1, effect at t = 48 hours ([1]; LPS dose 10.5): 2
mice with sickness score 2, effect at t = 24 hours ([1]; LPS dose 10.5): 1
mice with sickness score 2, effect at t = 48 hours ([1]; LPS dose 10.5): 3
mice with sickness score 3, effect at t = 24 hours ([1]; LPS dose 10.5): 1
mice with sickness score 4, effect at t = 24 hours ([1]; LPS dose 10.5): 3
mice with sickness score 1, effect at t = 48 hours ([1]; LPS dose 11): 6
mice with sickness score 2, effect at t = 24 hours ([1]; LPS dose 11): 4
mice with sickness score 4, effect at t = 24 hours ([1]; LPS dose 11): 2
mice scored D (dead), effect at t = 48 hours [2, 4]: 2
mice with sickness score 1, effect at t = 48 hours [2, 4]: 3
mice with sickness score 3, effect at t = 24 hours [2, 4]: 2
mice with sickness score 3, effect at t = 48 hours [2, 4]: 1
mice with sickness score 4, effect at t = 24 hours [2, 4]: 3
mice with sickness score 5, effect at t = 24 hours [2, 4]: 1
mice with sickness score 2, effect at t = 48 hours [2, 5]: 4
mice with sickness score 3, effect at t = 24 hours [2, 5]: 3
mice with sickness score 4, effect at t = 24 hours [2, 5]: 3
mice with sickness score 5, effect at t = 48 hours [2, 5]: 2
mice with sickness score 1, effect at t = 48 hours [2, 6]: 2
mice with sickness score 3, effect at t = 48 hours [2, 6]: 1
mice with sickness score 5, effect at t = 48 hours [2, 6]: 1
mice with sickness score 2, effect at t = 24 hours [2, 11]: 2 and 1
mice with sickness score 3, effect at t = 24 hours [2, 11]: 1 and 2
mice with sickness score 4, effect at t = 24 hours [2, 11]: 2 and 1
mice with sickness score 5, effect at t = 24 hours [2, 11]: 1 and 2
BUN concentration versus the PBS control group (in words) ([3]; 5 mg/kg i.v.): reduced BUN concentration
mortality versus the PBS control group (in words) ([3]; 5 mg/kg i.v.): significant reduction in mortality
mortality at 72 hours post-reperfusion [3]: 2/10
BUN after 25 minutes renal ischemia, mean [3, 7]: 15.09
BUN after 25 minutes renal ischemia, mean [3, 8]: 34.57
BUN after 25 minutes renal ischemia, mean [3, 9]: 39.8375
BUN after 25 minutes renal ischemia, mean [3, 10]: 7.463

VLPALP (hexamer peptide)
mice scored D (dead), effect at t = 48 hours ([1]; LPS dose 10.5): 5
mice with sickness score 5, effect at t = 24 hours ([1]; LPS dose 10.5): 5
mice scored D (dead), effect at t = 48 hours ([1]; LPS dose 11): 6
mice with sickness score 4, effect at t = 24 hours ([1]; LPS dose 11): 2
mice with sickness score 4, effect at t = 48 hours ([1]; LPS dose 11): 1
mice with sickness score 5, effect at t = 24 hours ([1]; LPS dose 11): 4
protective effect against LPS-induced sepsis (in words) ([2]; 5 mg/kg i.p.): marked protective effect
mice with sickness score 1, effect at t = 24 hours [2, 4]: 5
mice with sickness score 1, effect at t = 48 hours [2, 4]: 5
mice with sickness score 2, effect at t = 24 hours [2, 4]: 1
mice with sickness score 2, effect at t = 48 hours [2, 4]: 1
mice with sickness score 1, effect at t = 24 hours [2, 5]: 4
mice with sickness score 1, effect at t = 48 hours [2, 5]: 5
mice with sickness score 2, effect at t = 24 hours [2, 5]: 2
mice with sickness score 2, effect at t = 48 hours [2, 5]: 1
mice with sickness score 0, effect at t = 48 hours [2, 12]: 2
mice with sickness score 3, effect at t = 48 hours [2, 12]: 1
mice with sickness score 1, effect at t = 24 hours [2, 13]: 3 and 2
mice with sickness score 1, effect at t = 48 hours [2, 13]: 3 and 5
mice with sickness score 2, effect at t = 48 hours [2, 13]: 2 and 1
mice scored D (dead), effect at t = 48 hours [2, 14]: 1
mice with sickness score 1, effect at t = 24 hours [2, 14]: 2
mice with sickness score 3, effect at t = 48 hours [2, 14]: 1
mice with sickness score 4, effect at t = 24 hours [2, 14]: 1
mice with sickness score 5, effect at t = 48 hours [2, 14]: 2
mice with sickness score 2, effect at t = 24 hours [2, 15]: 3 and 4
mice with sickness score 2, effect at t = 48 hours [2, 15]: 2 and 1
mice with sickness score 3, effect at t = 24 hours [2, 15]: 1 and 2
mice scored D (dead), effect at t = 48 hours [2, 6]: 2
mice with sickness score 2, effect at t = 48 hours [2, 6]: 2
mice with sickness score 3, effect at t = 48 hours [2, 6]: 2
mice with sickness score 5, effect at t = 48 hours [2, 6]: 1
mice with sickness score 1, effect at t = 48 hours [2, 11]: 3 and 2
mice with sickness score 2, effect at t = 24 hours [2, 11]: 3 and 4
mice with sickness score 4, effect at t = 24 hours [2, 11]: 3 and 2
BUN after 25 minutes renal ischemia, mean [3, 7]: 16.24
BUN after 25 minutes renal ischemia, mean [3, 8]: 62.4
BUN after 25 minutes renal ischemia, mean [3, 9]: 47.05
BUN after 25 minutes renal ischemia, mean [3, 10]: 8.423
